Tests used:
Assay type in all cases: in vivo, Wistar rats
[1] = tested on: nitric oxide synthase (NOS); test: Nitric oxide synthase activity in brain regions, radiometric [3H]L-citrulline method; details: 3 x 20 mg/kg intramuscularly
Method: (§1) After the above experiments the rat brains were isolated and immediately placed in the ice cold 0.9% solution of sodium chloride. After cooling the following structures were isolated from the brain: cerebral cortex, hippocampus, mesencephalon, striatum, brainstem, hypothalamus and cerebellum. The isolated tissue was homogenized in a Potter S homogenizer for 3 minutes at 1500 rpm in 4-5 volumes of 20 mM HEPES (pH 7.5) at 4° C. The supernatants were centrifuged for 30 minutes at 11000 g at 4° C., and aliquots of the obtained supernatants were taken for determining nitrates and nitrites (NOx-), while the remaining part was mixed with cooled 20 mM of HEPES (pH 7.5), containing 0.5 mM ethylenediamine tetraacetate (EDTA), 1 mM dithiotreitol (DDT), 1 mM phenylmethylsulfonyl fluoride (PMSF), aprotinine and leupeptine at a concentration of 5 μg/ml, this mixture being used for determining nitric oxide synthase (NOS) activity.
The activity of nitric oxide synthase (NOS) was determined using a radiometric method by the rate of L-citrulline accumulation in a reaction of [^3H] L-arginine oxidation catalyzed by NOS (Bredt M., Snyder S. Nitric oxide mediates glutamate-linked enhancement of cGMP levels in the cerebellum. Proc. Natl. Acad. Sci., USA, 1989, V.86, p.9030-9033). The formation of L-citrulline in this reaction is equivalent to a biosynthesis of nitric oxide.
The reaction was initiated by adding brain supernatant in the reaction medium containing 2 μCi/ml of [3H] L-arginine, 20 mM HEPES (pH 7.4), 0.2 mM CaCl2, 5 μM FAD, 5 μM FMN, 1 mM NADPH, 50 μM of BH4. After 15-60 minutes of incubation at 37° C. a suspension of Dowex 50WX8-400 (Na^+-form), which sorbs unreacted [^3H]L-arginine, but not [^3H] L-citrulline was added to the samples. After the sorption the radioactivity of the samples was determined on a scintillation counter SL-4000 (“Intertechnique”). The activity of Ca^2+-dependent and Ca^2+-independent NOS isoforms was determined by the difference of rates of [^3H]L-citrulline formation in three parallel samples containing 2 mM EDTA (Ca^2+ chelator), 2 mM EDTA+2 mM L-NAME (inhibitor all NOS isoforms) or without inhibitors. The enzyme activity was expressed in rnol [^3H]L-citrulline acumulated per 1 minute on 1 mg of supernatant protein.
(§2) The content of protein in the samples was determined by the Bradford method (Bradford M. M. A rapid and sensitive method for quantitation of microgram quantities of protein using the principle of protein binding . Anal. Biochem., 1976, V. 72, p. 248-254) using Coumassi dye. The statistical analysis was performed using methods appropriate for respective experiments. The data are expressed as mean±standard error of mean.

[2] = tested on: physical dependence from morphine (morphine abstinence); test: Morphine abstinence syndrome, signs scored in the open field test; details: Morphine − (morphine + compound); compound 3 x 20 mg/kg intramuscularly; one value for the three compounds
Method: Thirty six hours after the last injection selected motor and autonomice parameters which are specific symptoms of abstinence were monitored in the <<open field>> test (an arena with a diameter of 120 cm and wall height of 40 cm).
Med., 2002, V.29, p.1-6.). The observable signs were recorded quantitatively (if it was possible) with further assignment of an index to each sign (depending on the specific feature of the sign) and calculation of the sum of scores. The expression of the abstinence syndrome was presented as a sum of scores. The results were processed using nonparametric statistical analysis based on the Mann-Whitney test.

[3] = tested on: nitrites and nitrates (NOx-); test: Measurement of nitrates/nitrites (NOx-) in brain regions after the morphine abstinence experiment; details: 3 x 20 mg/kg intramuscularly
Method: as §1
To estimate the intensity of metabolism of nitric oxide in rats, quantitative determination of stable metabolites of nitrogen oxide-nitrites and nitrates (NOx-) was performed using a fluorometric method by fluorescence of naphthotriazole, a product of reaction of 2,3- diaminonaphthalene (DAN) and nitrite in an acidic medium (Misko T. R., Schilling R. J., Salvemini D. et al. A fluorometric assay for the measurement of nitrite in biological samples. Anal. Biochem., 1993, V. 214, p.11-16) with modifications (Lei B., Adachi N., Nagaro T., Arai T. Measurement of total nitric oxide metabolite (NO (x) (-)) levels in vivo. Brain. Res. Protoc., 1999, V. 4, p. 415-419).
The supernatants of brain deproteinized at 100° C. were placed in a nitrite recovery system containing 0.125 unit/ml of nitrate reductase, 25 μM NADPH and 25 μM FAD prepared in 20 mM Tris-HCl buffer pH 7.6 and incubated for 30 minutes at 37° C. For oxidation of NADPH a lactate dehydrogenase (LDH)/pyruvate system was used. Then 316.0 μM DAN solution in 0.62 M HCl was added and the mixture was incubated for 10 minutes in dark. For stabilization of fluorescence of the formed naphthotriazole, 280 mM NaOH was added. The fluorescence intensity was measured using spectrofluorometer Hitachi F-3000 at a wavelength of excitation 365 nm and emission 405 nm. To calculate the concentration of NOx- in the brain a standard solution of sodium nitrate was used. The concentration of NOx- was expressed in nmol/mg of protein.
as §2

[4] = Groups Nos. 3-14, compound without morphine, one value for all 12 compounds
[5] = Morphine + compound, one value for the three compounds

Row | SMILES | Activity of NOS, hippocampus [1, 4] | Activity of NOS, hypothalamus [1, 4] | Activity of NOS, midbrain [1, 4] | Activity of NOS, striatum [1, 4] | Activity of NOS, hippocampus [1, 5] | Activity of NOS, hypothalamus [1, 5] | Activity of NOS, midbrain [1, 5] | Activity of NOS, striatum [1, 5] | Authentic differences (ξ-square criterion) in appearance of signs of abstinence: <<Wet dog>> shakes [2] | Authentic differences (ξ-square criterion) in appearance of signs of abstinence: Aggression [2] | Authentic differences (ξ-square criterion) in appearance of signs of abstinence: Convulsions [2] | Authentic differences (ξ-square criterion) in appearance of signs of abstinence: Diarrhea [2] | Authentic differences (ξ-square criterion) in appearance of signs of abstinence: Dyspnea [2] | Authentic differences (ξ-square criterion) in appearance of signs of abstinence: Forelimb jogging [2] | Authentic differences (ξ-square criterion) in appearance of signs of abstinence: Grit with teeth [2] | Authentic differences (ξ-square criterion) in appearance of signs of abstinence: Mastication [2] | Authentic differences (ξ-square criterion) in appearance of signs of abstinence: Piloerection [2] | Authentic differences (ξ-square criterion) in appearance of signs of abstinence: Ptosis [2] | Authentic differences (ξ-square criterion) in appearance of signs of abstinence: Rhinorrhea [2] | Authentic differences (ξ-square criterion) in appearance of signs of abstinence: Squeak when touched [2] | other results
1 | Nc1ccc2c(=O)n([C@@H]3O[C@H](CO)[C@@H](O)[C@H]3O)[nH]c(=O)c2c1.[Na] [Compound 11, sodium salt of 6-amino-2-(β-D-ribofuranosile)benzo[d]-3H-pyridazine-1,4-dione] | 3.09 ± 0.16 nmol/min/mg of protein | 5.45 ± 0.24 nmol/min/mg of protein | 2.60 ± 0.29 nmol/min/mg of protein | 1.26 ± 0.08 nmol/min/mg of protein | 2.51 ± 0.19 nmol/min/mg of protein | 5.36 ± 0.33 nmol/min/mg of protein | 1.99 ± 0.29 nmol/min/mg of protein | 1.29 ± 0.09 nmol/min/mg of protein | 0.7562 | 0.8456 | 0.7546 | 0.0032 | 0.0834 | 0.8217 | 0.8652 | 0.1032 | 0.2567 | 0.0320 | 0.4032 | 0.1342 | Nitrites, brainstem [3, 4]: 6.31 ± 0.58 nmol/mg of protein; Nitrites, cerebellum [3, 4]: 6.66 ± 0.63 nmol/mg of protein; Nitrites, cerebral cortex [3, 4]: 4.31 ± 0.37 nmol/mg of protein; Nitrites, hippocampus [3, 4]: 6.47 ± 0.72 nmol/mg of protein; Nitrites, hypothalamus [3, 4]: 6.77 ± 0.83 nmol/mg of protein; Nitrites, midbrain [3, 4]: 6.65 ± 0.70 nmol/mg of protein; Nitrites, striatum [3, 4]: 6.11 ± 0.29 nmol/mg of protein; Nitrites, brainstem [3, 5]: 6.99 ± 0.82 nmol/mg of protein; Nitrites, cerebellum [3, 5]: 5.85 ± 0.47 nmol/mg of protein; Nitrites, cerebral cortex [3, 5]: 4.93 ± 0.39 nmol/mg of protein; Nitrites, hippocampus [3, 5]: 5.24 ± 0.49 nmol/mg of protein; Nitrites, hypothalamus [3, 5]: 6.91 ± 0.58 nmol/mg of protein; Nitrites, midbrain [3, 5]: 5.75 ± 0.39 nmol/mg of protein; Nitrites, striatum [3, 5]: 3.57 ± 0.42 nmol/mg of protein
2 | O=C([O-])c1ccc2c(=O)[nH][nH]c(=O)c2c1.O=C([O-])c1ccc2c(=O)[nH][nH]c(=O)c2c1.[Na+].[Na+] [Compound 18, disodium salt of 6-carboxy-benzo [d]-3H-pyridazine-1,4-dione] | 3.09 ± 0.16 nmol/min/mg of protein | 5.45 ± 0.24 nmol/min/mg of protein | 2.60 ± 0.29 nmol/min/mg of protein | 1.26 ± 0.08 nmol/min/mg of protein | 2.51 ± 0.19 nmol/min/mg of protein | 5.36 ± 0.33 nmol/min/mg of protein | 1.99 ± 0.29 nmol/min/mg of protein | 1.29 ± 0.09 nmol/min/mg of protein | 0.7562 | 0.8456 | 0.7546 | 0.0032 | 0.0834 | 0.8217 | 0.8652 | 0.1032 | 0.2567 | 0.0320 | 0.4032 | 0.1342 | Nitrites, brainstem [3, 4]: 6.31 ± 0.58 nmol/mg of protein; Nitrites, cerebellum [3, 4]: 6.66 ± 0.63 nmol/mg of protein; Nitrites, cerebral cortex [3, 4]: 4.31 ± 0.37 nmol/mg of protein; Nitrites, hippocampus [3, 4]: 6.47 ± 0.72 nmol/mg of protein; Nitrites, hypothalamus [3, 4]: 6.77 ± 0.83 nmol/mg of protein; Nitrites, midbrain [3, 4]: 6.65 ± 0.70 nmol/mg of protein; Nitrites, striatum [3, 4]: 6.11 ± 0.29 nmol/mg of protein; Nitrites, brainstem [3, 5]: 6.99 ± 0.82 nmol/mg of protein; Nitrites, cerebellum [3, 5]: 5.85 ± 0.47 nmol/mg of protein; Nitrites, cerebral cortex [3, 5]: 4.93 ± 0.39 nmol/mg of protein; Nitrites, hippocampus [3, 5]: 5.24 ± 0.49 nmol/mg of protein; Nitrites, hypothalamus [3, 5]: 6.91 ± 0.58 nmol/mg of protein; Nitrites, midbrain [3, 5]: 5.75 ± 0.39 nmol/mg of protein; Nitrites, striatum [3, 5]: 3.57 ± 0.42 nmol/mg of protein

Source: patent US7776833B2, “Use of cyclic bioisosters of purine system derivatives for treating diseases produced by disorders of niterergic and dopaminergic systems” (priority 2003, dated 2010)
